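Protocol summary: plate cells (96-well), add compound at 5 concentrations, incubate 48 h, interpolate endpoints linearly. TGI denotes the concentration required for complete inhibition of growth.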
Columns and labels:
Test in all cases: NCI anticancer screen, dose series, 48 h
KM20L2 colon = tested on: KM20L2 colon
OVCAR-3 ovarian = tested on: OVCAR-3 ovarian
OVCAR-8 ovarian = tested on: OVCAR-8 ovarian
HOP-18 NSCLC = tested on: HOP-18 NSCLC
CAKI-1 renal = tested on: CAKI-1 renal
RXF 393 renal = tested on: RXF 393 renal
SF-268 CNS = tested on: SF-268 CNS
MOLT-4 leukemia = tested on: MOLT-4 leukemia
HCC-2998 colon = tested on: HCC-2998 colon
LOX IMVI melanoma = tested on: LOX IMVI melanoma
DMS 114 small cell lung = tested on: DMS 114 small cell lung
RXF-631 renal = tested on: RXF-631 renal
XF 498 CNS = tested on: XF 498 CNS
SNB-78 CNS = tested on: SNB-78 CNS
U251 CNS = tested on: U251 CNS
A549 NSCLC = tested on: A549 NSCLC
SF-539 CNS = tested on: SF-539 CNS
SNB-19 CNS = tested on: SNB-19 CNS
K-562 leukemia = tested on: K-562 leukemia
LXFL 529 NSCLC = tested on: LXFL 529 NSCLC
SK-MEL-2 melanoma = tested on: SK-MEL-2 melanoma
SF-295 CNS = tested on: SF-295 CNS
UACC-62 melanoma = tested on: UACC-62 melanoma
ACHN renal = tested on: ACHN renal
SK-MEL-28 melanoma = tested on: SK-MEL-28 melanoma
DMS 273 small cell lung = tested on: DMS 273 small cell lung
COLO 205 colon = tested on: COLO 205 colon
IGROV1 ovarian = tested on: IGROV1 ovarian
HCT-15 colon = tested on: HCT-15 colon
DLD-1 colon = tested on: DLD-1 colon
HCT-116 colon = tested on: HCT-116 colon
A498 renal = tested on: A498 renal
CCRF-CEM leukemia = tested on: CCRF-CEM leukemia
OVCAR-5 ovarian = tested on: OVCAR-5 ovarian
MALME-3M melanoma = tested on: MALME-3M melanoma
NCI-H460 lung = tested on: NCI-H460 lung
SK-OV-3 ovarian = tested on: SK-OV-3 ovarian
M19-MEL melanoma = tested on: M19-MEL melanoma
TK-10 renal = tested on: TK-10 renal
UACC-257 melanoma = tested on: UACC-257 melanoma
EKVX NSCLC = tested on: EKVX NSCLC
HL-60(TB) leukemia = tested on: HL-60(TB) leukemia
HT29 colon = tested on: HT29 colon
SK-MEL-5 melanoma = tested on: SK-MEL-5 melanoma
OVCAR-4 ovarian = tested on: OVCAR-4 ovarian
SW-620 colon = tested on: SW-620 colon
RPMI-8226 leukemia = tested on: RPMI-8226 leukemia
KM12 colon = tested on: KM12 colon
SN12C renal = tested on: SN12C renal
UO-31 renal = tested on: UO-31 renal
SNB-75 CNS = tested on: SNB-75 CNS
M14 melanoma = tested on: M14 melanoma
NCI-H23 lung = tested on: NCI-H23 lung
786-0 renal = tested on: 786-0 renal
NCI-H226 lung = tested on: NCI-H226 lung
HOP-92 NSCLC = tested on: HOP-92 NSCLC
SR leukemia = tested on: SR leukemia
NCI-H522 lung = tested on: NCI-H522 lung
HOP-62 NSCLC = tested on: HOP-62 NSCLC

C/C(CC(=O)CCCC(=O)Nc1ccc(Cl)cc1Cl)=N/NC(=O)CC#N
TGI (KM20L2 colon): > 100 µM
TGI (OVCAR-3 ovarian): > 100 µM
TGI (OVCAR-8 ovarian): > 100 µM
TGI (HOP-18 NSCLC): > 100 µM
TGI (CAKI-1 renal): > 100 µM
TGI (RXF 393 renal): > 100 µM
TGI (SF-268 CNS): > 100 µM
TGI (MOLT-4 leukemia): > 100 µM
TGI (HCC-2998 colon): > 100 µM
TGI (LOX IMVI melanoma): > 100 µM
TGI (DMS 114 small cell lung): > 100 µM
TGI (RXF-631 renal): > 100 µM
TGI (XF 498 CNS): > 100 µM
TGI (SNB-78 CNS): > 100 µM
TGI (U251 CNS): > 100 µM
TGI (A549 NSCLC): > 100 µM
TGI (SF-539 CNS): > 100 µM
TGI (SNB-19 CNS): > 100 µM
TGI (K-562 leukemia): > 100 µM
TGI (LXFL 529 NSCLC): > 100 µM
TGI (SK-MEL-2 melanoma): > 100 µM
TGI (SF-295 CNS): > 100 µM
TGI (UACC-62 melanoma): > 100 µM
TGI (ACHN renal): > 100 µM
TGI (SK-MEL-28 melanoma): > 100 µM
TGI (DMS 273 small cell lung): > 100 µM
TGI (COLO 205 colon): > 100 µM
TGI (IGROV1 ovarian): > 100 µM
TGI (HCT-15 colon): > 100 µM
TGI (DLD-1 colon): > 100 µM
TGI (HCT-116 colon): > 100 µM
TGI (A498 renal): > 100 µM
TGI (CCRF-CEM leukemia): > 100 µM
TGI (OVCAR-5 ovarian): > 100 µM
TGI (MALME-3M melanoma): > 100 µM
TGI (NCI-H460 lung): > 100 µM
TGI (SK-OV-3 ovarian): > 100 µM
TGI (M19-MEL melanoma): > 100 µM
TGI (TK-10 renal): > 100 µM
TGI (UACC-257 melanoma): > 100 µM
TGI (EKVX NSCLC): > 100 µM
TGI (HL-60(TB) leukemia): > 100 µM
TGI (HT29 colon): > 100 µM
TGI (SK-MEL-5 melanoma): > 100 µM
TGI (OVCAR-4 ovarian): > 100 µM
TGI (SW-620 colon): > 100 µM
TGI (RPMI-8226 leukemia): > 100 µM
TGI (KM12 colon): > 100 µM
TGI (SN12C renal): > 100 µM
TGI (UO-31 renal): > 100 µM
TGI (SNB-75 CNS): > 100 µM
TGI (M14 melanoma): > 100 µM
TGI (NCI-H23 lung): > 100 µM
TGI (786-0 renal): > 100 µM
TGI (NCI-H226 lung): > 100 µM

C[C@]12CCC3c4ccc(OC(=O)c5ccccc5)cc4CC[C@H]3C1CC[C@@H]2OC(=O)C12OC1CCC2=O (some centres not stated)
TGI (KM20L2 colon): 11.9 µM
TGI (OVCAR-3 ovarian): 8.82 µM
TGI (OVCAR-8 ovarian): 31.3 µM
TGI (HOP-18 NSCLC): 10.7 µM
TGI (RXF 393 renal): 4.51 µM
TGI (SF-268 CNS): 14.6 µM
TGI (MOLT-4 leukemia): 5.78 µM
TGI (HCC-2998 colon): > 71.9 µM
TGI (LOX IMVI melanoma): 8.13 µM
TGI (DMS 114 small cell lung): 6.7 µM
TGI (XF 498 CNS): 11.1 µM
TGI (SNB-78 CNS): 14.1 µM
TGI (U251 CNS): 17.4 µM
TGI (A549 NSCLC): 10.3 µM
TGI (SF-539 CNS): 4.31 µM
TGI (SNB-19 CNS): 37 µM
TGI (K-562 leukemia): 5.06 µM
TGI (HOP-92 NSCLC): 35.6 µM
TGI (LXFL 529 NSCLC): 3.76 µM
TGI (SK-MEL-2 melanoma): 16 µM
TGI (SF-295 CNS): 28.7 µM
TGI (UACC-62 melanoma): 38.4 µM
TGI (ACHN renal): 10.4 µM
TGI (SK-MEL-28 melanoma): 10.7 µM
TGI (DMS 273 small cell lung): 9.52 µM
TGI (COLO 205 colon): 7.49 µM
TGI (IGROV1 ovarian): 9.22 µM
TGI (HCT-15 colon): 31.3 µM
TGI (DLD-1 colon): 6.37 µM
TGI (HCT-116 colon): 7.18 µM
TGI (A498 renal): 14.2 µM
TGI (CCRF-CEM leukemia): 5.39 µM
TGI (OVCAR-5 ovarian): 21.4 µM
TGI (MALME-3M melanoma): 13.3 µM
TGI (NCI-H460 lung): 8.3 µM
TGI (SK-OV-3 ovarian): 33.4 µM
TGI (M19-MEL melanoma): 11.3 µM
TGI (TK-10 renal): 33.9 µM
TGI (UACC-257 melanoma): 14.8 µM
TGI (EKVX NSCLC): 15 µM
TGI (HL-60(TB) leukemia): 4.56 µM
TGI (HT29 colon): 7.55 µM
TGI (SK-MEL-5 melanoma): 9.49 µM
TGI (OVCAR-4 ovarian): 10.6 µM
TGI (SW-620 colon): 4.86 µM
TGI (RPMI-8226 leukemia): 14.8 µM
TGI (SR leukemia): 13.5 µM
TGI (KM12 colon): 13.6 µM
TGI (SN12C renal): 11.9 µM
TGI (UO-31 renal): 11.9 µM
TGI (SNB-75 CNS): 19.1 µM
TGI (M14 melanoma): 12 µM
TGI (NCI-H23 lung): 9.76 µM
TGI (NCI-H522 lung): 10.8 µM
TGI (786-0 renal): 6.4 µM
TGI (NCI-H226 lung): 34.5 µM
TGI (HOP-62 NSCLC): 11.9 µM

From PubChem BioAssay (NCI)
